The target of one experiment is T1, PPARγ (Homo sapiens, UniProt P37231).
T1 construct: gene PPARG
T1 sequence (P37231 1-505): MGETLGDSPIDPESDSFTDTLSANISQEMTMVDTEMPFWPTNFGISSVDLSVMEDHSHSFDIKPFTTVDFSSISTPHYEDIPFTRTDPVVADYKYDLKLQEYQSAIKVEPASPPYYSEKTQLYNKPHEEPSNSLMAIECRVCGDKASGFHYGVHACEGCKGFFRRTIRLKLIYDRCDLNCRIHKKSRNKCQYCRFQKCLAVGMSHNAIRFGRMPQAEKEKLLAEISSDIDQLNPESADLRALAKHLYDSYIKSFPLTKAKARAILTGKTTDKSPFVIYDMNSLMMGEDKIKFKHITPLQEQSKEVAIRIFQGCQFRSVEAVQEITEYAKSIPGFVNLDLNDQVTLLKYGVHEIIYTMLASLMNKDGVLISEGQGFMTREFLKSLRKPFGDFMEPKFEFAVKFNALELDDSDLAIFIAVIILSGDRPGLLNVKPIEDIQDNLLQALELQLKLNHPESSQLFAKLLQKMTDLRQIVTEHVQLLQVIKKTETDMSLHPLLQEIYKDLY
As to the kind of experiment: nuclear receptor panel assay, agonist mode. In kind it is cell-based. Conditions: read-out: ED50 values. An excerpt:
nuclear receptor panel assay, agonist mode on PPARγ

In experiment [1] the target is T2, FXR (Homo sapiens, UniProt Q96RI1).
T2 construct: gene NR1H4
T2 sequence (Q96RI1 1-486): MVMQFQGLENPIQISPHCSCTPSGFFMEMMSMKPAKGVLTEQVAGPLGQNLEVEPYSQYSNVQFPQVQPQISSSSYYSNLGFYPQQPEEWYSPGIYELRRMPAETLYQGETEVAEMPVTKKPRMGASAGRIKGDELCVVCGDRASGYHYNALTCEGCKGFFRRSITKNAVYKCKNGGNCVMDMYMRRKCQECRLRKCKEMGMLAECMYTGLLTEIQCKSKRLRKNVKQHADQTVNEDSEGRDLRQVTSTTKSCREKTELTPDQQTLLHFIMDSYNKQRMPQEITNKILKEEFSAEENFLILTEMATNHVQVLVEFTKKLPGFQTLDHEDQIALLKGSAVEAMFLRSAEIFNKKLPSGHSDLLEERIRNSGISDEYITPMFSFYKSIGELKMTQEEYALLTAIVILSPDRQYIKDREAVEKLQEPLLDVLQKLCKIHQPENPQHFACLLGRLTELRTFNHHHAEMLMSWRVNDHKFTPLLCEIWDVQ
As to the kind of experiment: luciferase reporter gene assay, agonist mode. The class given is cell-based. Conditions: read-out: ED50 values. An excerpt:
luciferase reporter gene assay, agonist mode on FXR

In experiment [2] the target is T2, FXR. As to the kind of experiment: luciferase reporter gene assay, antagonist mode. The class given is cell-based. An excerpt: luciferase reporter gene assay, antagonist mode on FXR
Another experiment has as its system T3, RXRβ.
T3 construct: gene RXRB; not described
As to the kind of experiment: nuclear receptor panel reporter assay, antagonist mode. The class given is cell-based, Homo sapiens. Particulars: control ligand not told for RXRβ. The text has this:
nuclear receptor panel reporter assay, antagonist mode on RXRβ

Take `CC(C)(C)n1ncc(C(=O)Nc2ccc(Cl)c(CN3CCC(Oc4ccc(C(=O)O)cc4)CC3)c2)c1-c1ccc(F)cc1` [compound‐T1, 4‐({1‐[5‐({[1‐tert‐butyl‐5‐(4‐fluorophenyl)‐1H‐pyrazol‐4‐yl]carbonyl}amino)‐2‐chlorobenzyl]piperidin‐4‐yl}oxy)benzoic acid]: the EC50 at PPARγ and at FXR [1] was > 10 µM each time. Besides, the 50% inhibitory concentration (IC50) against FXR [2] was 0.0021 µM; in the experiment on RXRβ, > 10 µM.

For the origin of these results see PMC5842406, “Antidyslipidemic potential of a novel farnesoid X receptor antagonist in a hamster model of dyslipidemia: Comparative studies of other nonstatin agents” (Pharmacology Research & Perspectives, 2018).
